One experiment deals with T1, hSCN3A (Homo sapiens, UniProt Q9NY46).
T1 construct: expressed in transfected cells
Nature of the experiment: Whole-cell patch-clamp electrophysiology (conventional or PatchXpress), HEK cells expressing hSCN3A, estimated IC-50. The format is cell-based. Conditions: estimated IC-50, HEK cells expressing hSCN3A; class symbols or bounds; read-out: SCN3A EIC-50. The procedure, abridged:
(§1)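 Stably transfected HEK cells recorded by whole-cell voltage clamp (manual or PatchXpress) at 22–24 °C in pH 7.4 HEPES-buffered extracellular solution. Cells held at the empirically determined inactivation V1/2 after an 8 s prepulse, then stepped to 0 mV for 20 ms; % inhibition from current amplitude before vs after compound.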

A further experiment has as its target T2, hSCN9A (Homo sapiens, UniProt Q15858).
T2 construct: expressed in transfected cells
In words: Whole-cell patch-clamp electrophysiology (conventional or PatchXpress), HEK cells expressing hSCN9A, estimated IC-50. The format is cell-based. Conditions: estimated IC-50, HEK cells expressing hSCN9A; class symbols or bounds; read-out: SCN9A EIC-50. Put shortly:
as §1

T1 sequence (Q9NY46 whole entry): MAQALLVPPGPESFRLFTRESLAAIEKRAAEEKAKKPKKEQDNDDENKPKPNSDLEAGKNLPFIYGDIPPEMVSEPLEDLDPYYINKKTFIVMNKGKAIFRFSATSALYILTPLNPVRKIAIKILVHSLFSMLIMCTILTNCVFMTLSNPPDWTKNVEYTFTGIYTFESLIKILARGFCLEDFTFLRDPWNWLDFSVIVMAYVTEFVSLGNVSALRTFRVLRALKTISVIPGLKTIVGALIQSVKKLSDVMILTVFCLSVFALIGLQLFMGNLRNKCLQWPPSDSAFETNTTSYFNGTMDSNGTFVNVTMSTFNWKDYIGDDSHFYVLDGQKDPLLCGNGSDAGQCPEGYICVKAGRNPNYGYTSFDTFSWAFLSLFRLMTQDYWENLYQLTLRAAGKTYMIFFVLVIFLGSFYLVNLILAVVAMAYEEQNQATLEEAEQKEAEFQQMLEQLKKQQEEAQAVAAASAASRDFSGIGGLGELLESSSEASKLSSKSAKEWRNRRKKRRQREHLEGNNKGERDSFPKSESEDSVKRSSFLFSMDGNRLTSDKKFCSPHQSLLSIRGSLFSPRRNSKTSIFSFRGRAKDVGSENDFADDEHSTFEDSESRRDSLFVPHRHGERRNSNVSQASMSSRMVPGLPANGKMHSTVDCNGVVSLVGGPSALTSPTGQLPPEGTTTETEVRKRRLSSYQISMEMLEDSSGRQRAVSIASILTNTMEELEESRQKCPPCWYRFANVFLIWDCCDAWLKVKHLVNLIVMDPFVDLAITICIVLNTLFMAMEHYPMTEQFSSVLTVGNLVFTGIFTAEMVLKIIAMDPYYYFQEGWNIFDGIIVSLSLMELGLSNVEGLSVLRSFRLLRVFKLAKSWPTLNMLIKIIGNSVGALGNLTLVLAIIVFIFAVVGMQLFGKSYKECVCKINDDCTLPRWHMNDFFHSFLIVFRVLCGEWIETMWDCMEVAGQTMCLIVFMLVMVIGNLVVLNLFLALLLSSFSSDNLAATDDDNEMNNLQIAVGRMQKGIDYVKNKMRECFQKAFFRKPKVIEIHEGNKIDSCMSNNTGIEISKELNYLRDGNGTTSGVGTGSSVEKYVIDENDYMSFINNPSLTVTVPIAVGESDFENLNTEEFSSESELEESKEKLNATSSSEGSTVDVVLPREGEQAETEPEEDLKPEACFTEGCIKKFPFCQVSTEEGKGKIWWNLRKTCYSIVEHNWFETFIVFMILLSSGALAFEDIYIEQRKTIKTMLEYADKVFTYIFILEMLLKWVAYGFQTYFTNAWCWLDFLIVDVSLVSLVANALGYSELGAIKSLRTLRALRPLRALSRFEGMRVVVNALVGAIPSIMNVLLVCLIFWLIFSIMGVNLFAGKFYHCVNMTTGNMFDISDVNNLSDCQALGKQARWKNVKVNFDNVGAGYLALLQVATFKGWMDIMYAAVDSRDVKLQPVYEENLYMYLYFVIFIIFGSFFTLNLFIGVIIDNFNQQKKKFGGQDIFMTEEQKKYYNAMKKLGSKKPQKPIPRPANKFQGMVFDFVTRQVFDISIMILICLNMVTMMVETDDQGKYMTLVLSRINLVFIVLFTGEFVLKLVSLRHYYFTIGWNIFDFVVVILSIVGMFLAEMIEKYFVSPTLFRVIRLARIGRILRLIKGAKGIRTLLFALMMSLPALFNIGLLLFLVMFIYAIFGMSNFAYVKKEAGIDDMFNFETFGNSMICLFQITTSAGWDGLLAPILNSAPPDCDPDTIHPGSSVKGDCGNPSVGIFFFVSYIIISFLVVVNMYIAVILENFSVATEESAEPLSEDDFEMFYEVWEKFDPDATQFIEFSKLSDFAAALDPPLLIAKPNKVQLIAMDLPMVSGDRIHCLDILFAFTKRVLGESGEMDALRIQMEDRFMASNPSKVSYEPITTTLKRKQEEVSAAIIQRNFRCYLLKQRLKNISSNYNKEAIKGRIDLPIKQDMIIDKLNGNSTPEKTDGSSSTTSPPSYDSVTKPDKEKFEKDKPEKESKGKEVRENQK
T2 sequence (Q15858 whole entry): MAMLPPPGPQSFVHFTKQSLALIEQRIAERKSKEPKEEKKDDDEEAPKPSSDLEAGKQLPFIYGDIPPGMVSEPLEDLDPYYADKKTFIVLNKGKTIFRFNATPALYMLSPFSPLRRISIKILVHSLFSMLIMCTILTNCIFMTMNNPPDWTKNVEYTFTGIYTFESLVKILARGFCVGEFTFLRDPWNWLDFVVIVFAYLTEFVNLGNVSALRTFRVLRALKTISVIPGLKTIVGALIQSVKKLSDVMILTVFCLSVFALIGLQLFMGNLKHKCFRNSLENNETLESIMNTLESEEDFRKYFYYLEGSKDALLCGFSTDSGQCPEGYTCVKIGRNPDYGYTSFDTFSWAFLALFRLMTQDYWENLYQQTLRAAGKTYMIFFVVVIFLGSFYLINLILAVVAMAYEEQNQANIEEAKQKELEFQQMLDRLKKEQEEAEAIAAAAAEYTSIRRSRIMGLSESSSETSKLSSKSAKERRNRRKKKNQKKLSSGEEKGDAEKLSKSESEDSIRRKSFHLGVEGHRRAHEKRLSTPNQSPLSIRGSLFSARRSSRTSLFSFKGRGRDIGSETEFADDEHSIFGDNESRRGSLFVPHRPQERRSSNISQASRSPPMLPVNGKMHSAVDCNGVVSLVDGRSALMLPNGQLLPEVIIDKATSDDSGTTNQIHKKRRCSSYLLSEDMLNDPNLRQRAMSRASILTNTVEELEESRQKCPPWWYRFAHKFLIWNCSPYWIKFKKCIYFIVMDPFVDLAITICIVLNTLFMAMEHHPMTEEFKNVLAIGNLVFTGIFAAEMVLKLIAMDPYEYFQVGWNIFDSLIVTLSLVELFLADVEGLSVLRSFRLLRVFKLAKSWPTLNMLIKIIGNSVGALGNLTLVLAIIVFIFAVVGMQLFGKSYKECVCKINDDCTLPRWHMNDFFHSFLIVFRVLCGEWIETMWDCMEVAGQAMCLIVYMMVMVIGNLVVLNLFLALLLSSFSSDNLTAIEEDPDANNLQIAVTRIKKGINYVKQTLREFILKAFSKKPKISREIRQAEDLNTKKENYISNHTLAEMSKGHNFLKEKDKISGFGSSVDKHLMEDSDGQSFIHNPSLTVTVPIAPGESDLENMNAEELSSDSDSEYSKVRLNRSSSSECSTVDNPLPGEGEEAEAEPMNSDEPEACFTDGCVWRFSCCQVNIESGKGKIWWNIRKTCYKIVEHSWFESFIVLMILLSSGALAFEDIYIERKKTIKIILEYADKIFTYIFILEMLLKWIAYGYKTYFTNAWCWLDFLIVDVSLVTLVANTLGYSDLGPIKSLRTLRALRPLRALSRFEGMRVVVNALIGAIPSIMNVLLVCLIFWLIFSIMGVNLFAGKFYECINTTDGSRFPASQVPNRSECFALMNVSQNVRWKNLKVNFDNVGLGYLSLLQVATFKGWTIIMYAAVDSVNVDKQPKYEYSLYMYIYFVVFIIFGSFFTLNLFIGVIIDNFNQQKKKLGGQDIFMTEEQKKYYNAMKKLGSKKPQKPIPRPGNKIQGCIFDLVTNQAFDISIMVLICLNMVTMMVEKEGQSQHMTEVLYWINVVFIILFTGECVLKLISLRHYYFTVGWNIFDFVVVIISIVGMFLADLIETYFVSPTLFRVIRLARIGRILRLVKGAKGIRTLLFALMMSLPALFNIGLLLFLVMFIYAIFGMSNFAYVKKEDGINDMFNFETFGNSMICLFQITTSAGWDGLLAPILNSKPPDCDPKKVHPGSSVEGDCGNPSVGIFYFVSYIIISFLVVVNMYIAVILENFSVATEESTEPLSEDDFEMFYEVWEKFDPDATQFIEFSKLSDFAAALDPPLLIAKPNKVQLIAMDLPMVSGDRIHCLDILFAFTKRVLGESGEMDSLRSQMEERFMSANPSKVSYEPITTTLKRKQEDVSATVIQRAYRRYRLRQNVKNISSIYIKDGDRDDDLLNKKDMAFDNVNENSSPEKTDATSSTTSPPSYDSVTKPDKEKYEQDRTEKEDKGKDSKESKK

In the case of `Cc1cc(Nc2ccc(S(=O)(=O)Nc3nccs3)c(Cl)c2)n(-c2ccccc2)n1` [Compound 161, 2-chloro-4-(3-methyl-1-phenyl-1H-pyrazol-5-ylamino)-N-(thiazol-2-yl)benzenesulfonamide], the IC50 on hSCN3A and at hSCN9A was under 2000 nM each time.

For the compound `Cc1cc(Nc2ccc(S(=O)(=O)Nc3ncc(Cl)s3)c(F)c2)n(-c2ccccc2)n1` [Compound 162, N-(5-chlorothiazol-2-yl)-2-fluoro-4-(3-methyl-1-phenyl-1H-pyrazol-5-ylamino)benzenesulfonamide], the IC50 on hSCN3A and on hSCN9A was under 2000 nM in each case.

Regarding `O=S(=O)(Nc1nccs1)c1ccc(Nc2ccccc2-c2ccccc2)cc1F` [Compound 172, 4-(biphenyl-2-ylamino)-2-fluoro-N-(thiazol-2-yl)benzenesulfonamide], the IC50 on hSCN3A and on hSCN9A was under 2000 nM each time.

Regarding `Cc1cc(Nc2ccc(S(=O)(=O)Nc3nccs3)c(F)c2)n(-c2ccccc2F)n1` [Compound 173, 2-fluoro-4-(1-(2-fluorophenyl)-3-methyl-1H-pyrazol-5-ylamino)-N-(thiazol-2-yl)benzenesulfonamide], the IC50 on hSCN3A and at hSCN9A was under 2000 nM throughout.

With `Cc1cc(Nc2ccc(S(=O)(=O)Nc3nccs3)c(F)c2)n(-c2ccc(F)cc2Cl)n1` [Compound 182, 4-(1-(2-chloro-4-fluorophenyl)-3-methyl-1H-pyrazol-5-ylamino)-2-fluoro-N-(thiazol-2-yl)benzenesulfonamide], the IC50 at hSCN3A and at hSCN9A was under 2000 nM each time.

Take `O=S(=O)(Nc1nccs1)c1ccc(Nc2ccn(Cc3ccc(C(F)(F)F)cc3)n2)cc1F` [Compound 183, 2-fluoro-N-(thiazol-2-yl)-4-(1-(4-(trifluoromethyl)benzyl)-1H-pyrazol-3-ylamino)benzenesulfonamide]: the IC50 on hSCN3A and on hSCN9A was under 2000 nM each time.

For the compound `O=S(=O)(Nc1nccs1)c1ccc(Nc2ccn(Cc3ccc(Cl)cc3)n2)c(F)c1` [Compound 184, 4-(1-(4-chlorobenzyl)-1H-pyrazol-3-ylamino)-3-fluoro-N-(thiazol-2-yl)benzenesulfonamide], the IC50 on hSCN3A and at hSCN9A was under 2000 nM in each case.

On to `O=S(=O)(Nc1nccs1)c1ccc(Nc2ccn(Cc3ccc(C(F)(F)F)cc3)n2)c(F)c1` [Compound 185, 3-fluoro-N-(thiazol-2-yl)-4-(1-(4-(trifluoromethyl)benzyl)-1H-pyrazol-3-ylamino)benzenesulfonamide], for which the IC50 at hSCN3A and on hSCN9A was under 2000 nM in each case.

In the case of `COc1ccccc1-n1nc(C)cc1Nc1ccc(S(=O)(=O)Nc2nccs2)c(F)c1` [Compound 188, 2-fluoro-4-(1-(2-methoxyphenyl)-3-methyl-1H-pyrazol-5-ylamino)-N-(thiazol-2-yl)benzenesulfonamide], the IC50 at hSCN3A and on hSCN9A was under 2000 nM each time.

On to `Cc1cc(Nc2ccc(S(=O)(=O)Nc3nccs3)c(F)c2)n(-c2c(C)cccc2C)n1` [Compound 191, 4-(1-(2,6-dimethylphenyl)-3-methyl-1H-pyrazol-5-ylamino)-2-fluoro-N-(thiazol-2-yl)benzenesulfonamide], for which the IC50 on hSCN3A and at hSCN9A was under 2000 nM in each case.

Consider `Cn1nc(C(C)(C)C)cc1Nc1ccc(S(=O)(=O)Nc2nccs2)c(F)c1` [Compound 193, 4-(3-tert-butyl-1-methyl-1H-pyrazol-5-ylamino)-2-fluoro-N-(thiazol-2-yl)benzenesulfonamide], for which the IC50 at hSCN3A and on hSCN9A was under 2000 nM each time.

Regarding `O=S(=O)(Nc1nccs1)c1ccc(Nc2ccn(Cc3ccc(Cl)cc3F)n2)c(F)c1` [Compound 198, 4-(1-(4-chloro-2-fluorobenzyl)-1H-pyrazol-3-ylamino)-3-fluoro-N-(thiazol-2-yl)benzenesulfonamide], the IC50 on hSCN3A and at hSCN9A was under 2000 nM in each case.

For the compound `O=S(=O)(Nc1nccs1)c1ccc(Nc2ncn(Cc3cccc(Cl)c3)n2)c(F)c1` [Compound 201, 4-(1-(3-chlorobenzyl)-1H-1,2,4-triazol-3-ylamino)-3-fluoro-N-(thiazol-2-yl)benzenesulfonamide], the IC50 is 2000 to 10000 nM at hSCN3A and under 2000 nM at hSCN9A.

As to `O=S(=O)(Nc1nccs1)c1ccc(Nc2cc(CC(F)(F)F)nn2-c2ccccc2F)cc1F` [Compound 204, 2-fluoro-4-(1-(2-fluorophenyl)-3-(2,2,2-trifluoroethyl)-1H-pyrazol-5-ylamino)-N-(thiazol-2-yl)benzenesulfonamide], the IC50 on hSCN3A and on hSCN9A was under 2000 nM in each case.

On to `O=S(=O)(Nc1nccs1)c1ccc(Nc2ccn(Cc3ccc(Cl)cc3)n2)c(Cl)c1` [Compound 205, 3-chloro-4-(1-(4-chlorobenzyl)-1H-pyrazol-3-ylamino)-N-(thiazol-2-yl)benzenesulfonamide], for which the IC50 at hSCN3A and at hSCN9A was under 2000 nM throughout.

In the case of `O=S(=O)(Nc1nccs1)c1cc(F)c(Nc2ccn(Cc3ccc(Cl)cc3)n2)cc1F` [Compound 206, 4-(1-(4-chlorobenzyl)-1H-pyrazol-3-ylamino)-2,5-difluoro-N-(thiazol-2-yl)benzenesulfonamide], the IC50 on hSCN3A and on hSCN9A was under 2000 nM throughout.

Consider `CCN(CC)C(=O)Cc1cc(Nc2ccc(S(=O)(=O)Nc3nccs3)c(F)c2)n(-c2ccccc2)n1` [Compound 216, N,N-diethyl-2-(5-(3-fluoro-4-(N-thiazol-2-ylsulfamoyl)phenylamino)-1-phenyl-1H-pyrazol-3-yl)ethanamide], for which the figures for the IC50 at hSCN3A and on hSCN9A were over 1000 nM and under 2000 nM, respectively.

On to `COc1cc(Cl)ccc1-c1cc(Nc2ccc(S(=O)(=O)Nc3nccs3)c(F)c2)n(C)n1` [Compound 222, 4-(3-(4-chloro-2-methoxyphenyl)-1-methyl-1H-pyrazol-5-ylamino)-2-fluoro-N-(thiazol-2-yl)benzenesulfonamide], for which the IC50 at hSCN3A and on hSCN9A was under 2000 nM in each case.

Turning to `O=S(=O)(Nc1nccs1)c1ccc(Nc2ccn(Cc3ccc(Cl)cc3)n2)nc1` [Compound 227, 6-(1-(4-chlorobenzyl)-1H-pyrazol-3-ylamino)-N-(thiazol-2-yl)pyridine-3-sulfonamide], the IC50 was under 2000 nM on hSCN3A and 2000 to 10000 nM on hSCN9A.

In the case of `O=S(=O)(Nc1nccs1)c1ccc(Nc2cnn(Cc3ccc(Cl)cc3)c2)nc1` [Compound 228, 6-(1-(4-chlorobenzyl)-1H-pyrazol-4-ylamino)-N-(thiazol-2-yl)pyridine-3-sulfonamide], the results for the IC50 at hSCN3A and on hSCN9A were under 2000 nM and 2000 to 10000 nM, respectively.

As for `O=S(=O)(Nc1nccs1)c1ccc(Nc2ccn(Cc3ccc(Cl)cc3)n2)cn1` [Compound 235, 5-(1-(4-chlorobenzyl)-1H-pyrazol-3-ylamino)-N-(thiazol-2-yl)pyridine-2-sulfonamide], the values for the IC50 on hSCN3A and at hSCN9A were under 2000 nM and 2000 to 10000 nM, respectively.

Turning to `O=S(=O)(Nc1ncns1)c1ccc(Nc2ccn(Cc3ccc(Cl)cc3)n2)cc1F` [Compound 244, 4-(1-(4-chlorobenzyl)-1H-pyrazol-3-ylamino)-2-fluoro-N-(1,2,4-thiadiazol-5-yl)benzenesulfonamide], the IC50 at hSCN3A and at hSCN9A was under 2000 nM throughout.

As for `Cc1cc(Nc2ccc(S(=O)(=O)Nc3ncc(C#N)s3)c(F)c2)n(-c2ccccc2)n1` [Compound 245, N-(5-cyanothiazol-2-yl)-2-fluoro-4-(3-methyl-1-phenyl-1H-pyrazol-5-ylamino)benzenesulfonamide], the results for the IC50 at hSCN3A and on hSCN9A were 2000 to 10000 nM and over 1000 nM, respectively.

The values are drawn from patent US8124610B2, “Sodium channel inhibitors” (Icagen Inc., priority 2007, dated 2012).
